Measured values as given in PubChem BioAssay (NCI).
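The compound was tested at five concentrations on cells cultured in 96-well plates, with a 48-hour exposure period. At the GI50, growth is halved. TGI marks complete inhibition of growth.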

Tests used:
Test in all cases: NCI anticancer screen, dose series, 48 h
[1] = test system: HL-60(TB) leukemia
[2] = test system: IGROV1 ovarian
[3] = test system: K-562 leukemia
[4] = test system: LOX IMVI melanoma
[5] = test system: M14 melanoma
[6] = test system: MDA-MB-231 breast
[7] = test system: NCI-H23 lung
[8] = test system: RXF 393 renal
[9] = test system: SK-MEL-28 melanoma
[10] = test system: UACC-62 melanoma

| Compound | GI50 [1] [µM] | TGI [1] [µM] | GI50 [2] [µM] | TGI [2] [µM] | GI50 [3] [µM] | TGI [3] [µM] | GI50 [4] [µM] | TGI [4] [µM] | GI50 [5] [µM] | TGI [5] [µM] | GI50 [6] [µM] | TGI [6] [µM] | GI50 [7] [µM] | TGI [7] [µM] | GI50 [8] [µM] | TGI [8] [µM] | GI50 [9] [µM] | TGI [9] [µM] | GI50 [10] [µM] | TGI [10] [µM] |
| --- | --- | --- | --- | --- | --- | --- | --- | --- | --- | --- | --- | --- | --- | --- | --- | --- | --- | --- | --- | --- |
| COc1ccc2c(c1)/C(=C\c1c(C)nc3sccn13)C(=O)N2 | 0.136 | 0.534 | < 0.0252 | 3.69 | 0.0956 | > 100 | < 0.01 | > 100 | < 0.0495 | > 100 | < 0.01 | 26.2 | 0.382 | > 100 | 0.722 | > 90.4 | 66.3 | > 100 | < 0.0356 | 3.35 |
| CC(CCC(=O)O)[C@H]1CCC2[C@@H]3CC[C@@H]4CC(O)CC[C@]4(C)C3CC[C@@]21C (some centres undefined) | 52.3 | > 100 | 40.7 | > 100 | 32.6 | > 100 | 29.5 | > 100 | 30.4 | 97.8 | 58.7 | > 100 | 15.6 | 37.9 | 46.9 | > 100 | 54.4 | > 100 | 38.6 | > 100 |
| COc1ccc(/C=C2\CCCC3=C2N=C2SC(C)=NN2C3c2ccc(OC)c(OC)c2)cc1OC (centres undefined) | 3.97 | 36 | 18.4 | 93.8 | 3.98 | > 100 | 4.52 | 35.2 | 5.73 | > 100 | 25.1 | > 100 | 8.2 | > 100 | 3.88 | 18.2 | 8.92 | > 100 | 4.68 | 45.6 |
| COc1cc(C2CC(c3ccc4c(c3)OCO4)=NN2C=O)cc(OC)c1OC (centres undefined) | 0.935 | – | 2.37 | > 100 | 0.621 | > 100 | 1.27 | > 100 | 1.3 | > 100 | > 25.3 | > 100 | 4.14 | > 100 | 4.05 | 22.2 | 6.36 | > 100 | 2.21 | > 100 |
| O=C(/C=C/c1ccccc1)c1cc(Br)ccc1O | – | 25.7 | – | 25 | – | 43.1 | – | 27.5 | – | 52.9 | – | 42.5 | – | 31.4 | – | 37.4 | – | 31.5 | – | 27.4 |
| Cc1cc(N(CCCl)CCCl)ccc1C=Nc1ccc(-c2csc(Cc3ccccc3)n2)cc1 | 1.85 | > 46 | 24.2 | > 100 | 9.88 | > 100 | 7.95 | 20.8 | 15.7 | 58.6 | 12.3 | 49.5 | 8.96 | 44.1 | 14.6 | 71.3 | 17.9 | 63.1 | 0.621 | 16 |
| CCCC(=O)OC1C(C(O)CO)OC2OC(C)(C)OC21 (centres undefined) | – | < 3.16 | – | > 100 | – | < 3.16 | – | > 100 | – | > 100 | – | > 100 | – | > 100 | – | > 100 | – | > 100 | – | > 100 |
